Series [1] relates to Eμ-Myc;p19Arf−/− lymphoma cells. Kind of series: 8-shRNA signature (GFP competition) with probabilistic nearest neighbors and PCA analysis. The series is classed as cell-based, mouse. To be noted: shDNAPKcs, LD80-90.
Series [2] has the same test system. The conditions noted are these: for single drug cell death: single drug concentration used in the 17AAG-CBL combination.

For `O=C(O)CCCc1ccc(N(CCCl)CCCl)cc1` [CBL, Chlorambucil], the “effect of diminution of DNAPKcs levels on drug response” value in series [1] is listed as “resistance”. For the same compound, the “single drug cell death” value in series [2] is on record as ~20%. With `Nc1nc2c(c(=O)[nH]1)N(C=O)C(CNc1ccc(C(=O)N[C@@H](CCC(=O)O)C(=O)O)cc1)CN2` (stereo partly drawn) [leucovorin], the “effect on 5-FU action” value in series [2] is reported as “potentiated 5-FU action”. For the same compound, the cell death result in series [2] (leucovorin alone at 1 μM, lymphoma cells) was “no cell death”. For the compound `COc1cccc2c1C(=O)c1c(O)c3c(c(O)c1C2=O)C[C@@](O)(C(=O)CO)C[C@@H]3O[C@H]1C[C@H](N)[C@H](O)[C@H](C)O1` [Dox, doxorubicin], the “effect of diminution of DNAPKcs levels on drug response” value in series [1] was “sensitivity”. With `C=CCNC1=C2C[C@@H](C)C[C@H](OC)[C@H](O)[C@@H](C)/C=C(\C)[C@H](OC(N)=O)[C@@H](OC)/C=C\C=C(/C)C(=O)NC(=CC1=O)C2=O` [17AAG], in series [2], the “single drug cell death” value is recorded as ~20%.
